Results published in a melting point compilation (Tetko et al.; mined from patent text by program, amines drawn as free bases though some values may be those of a salt).

Compound	melting point [°C]
COc1cc(C)c(/C=C/c2nc3c([nH]2)c(=O)n(C)c(=O)n3C)cc1C	> 280
COCCc1nc(Cl)c(CO)[nH]1	91 to 95
CC(=O)OCCCn1c(NC(=O)c2cccs2)nc2cc(C(=O)N(C)C3CCCCC3)ccc21	74 to 76
CCC(OC(=O)COC)c1ccc(Cl)c2nc3n(c12)CCCN3c1ccc(Cl)cc1Cl (stereo not drawn)	156 to 158
NC(=O)N(O)Cc1cc(-c2ccc(Cl)cc2)n(-c2ccc(S(N)(=O)=O)cc2)n1	216 to 218
O=C(c1cccs1)C(Br)c1ccc(F)cc1 (stereo not drawn)	182 to 189
CC1CC(=O)C=C(c2ccc(OCC(=O)O)c(Cl)c2Cl)C1 (stereo not drawn)	187 to 190
C[C@@H](n1cnc2cc(N3CCN(c4ccc(Cl)cc4)CC3)c(F)cc2c1=O)[C@](O)(Cn1cncn1)c1ccc(F)cc1F	130 to 133
Cn1c(CCc2ccc(C#N)cc2)nc2cc(NS(=O)(=O)c3ccccc3)ccc21	222 to 225
CCc1c(CC)n(Cc2ccccc2Cl)c2cc(C(=O)OC)ccc12	86 to 88
COc1cc(Nc2ncc(-c3cccc([N+](=O)[O-])c3)o2)ccc1-c1cnco1	279 to 281
N#Cc1nn(-c2c(Cl)cc(C(F)(F)F)cc2Cl)c(NCc2ccccn2)c1SC(F)F	117 to 120
CCCCCCCCCCOc1cc(OCCCCCCCCCC)cc(C(=O)N(CC(=O)O)CC(=O)O)c1	81 to 84
COc1cc(OCc2ccccn2)ccc1/C=C/c1cc(/C=C/c2ccc3nccnc3c2)[nH]n1	205 to 213
O=C(CCc1ccc(O)cc1)OCCC(c1ccccc1)(c1ccccc1)c1ccccc1	105 to 107
CCOC(=O)Cn1c(-c2ccc(OC)c(OC)c2)cc(=Nc2c(C)cc(C)cc2C)n(C)c1=O	112 to 113
CC(=O)Nc1ccc(S(=O)(=O)Nc2cccnc2Nc2ccccc2)cc1	234 to 236
Cc1ccc(Oc2ccc(C)cc2C(=O)O)cc1	113 to 115
CC(C)(C(=O)NCCC#N)c1ccc(C(=O)Nc2cn3cc(Cl)ccc3n2)cc1	208 to 209
CN1CC(c2ccc(Cl)cc2)C(=O)C(c2cccc(Cl)c2)C1 (stereo not drawn)	126
CCCC(CCC)(CCC)C(=O)O	67
Cc1nc(N)nc(N)c1-c1cc(C#N)ccc1Cl	239 to 241
CSc1ccc(N=Cc2ccc(Cl)cc2)cc1	203 to 205
CC1=CC(=O)C(C)S(=O)(=O)N1C (stereo not drawn)	73 to 75
Nc1sc2c(c1C(=O)c1cccs1)CCN(Cc1ccccc1)C2	122 to 123

Compound	melting point [°C]
O=[N+]([O-])c1ccc2c(c1)Sc1cc(I)ccc1N2	> 250
CCCCCCCCCCCCCCc1ccc(OCC(O)CO)c(CC)c1 (stereo not drawn)	55 to 56
CCOC(=O)C1=C(C)NC(CF)=C(C(=O)OCC)C1c1cccc([N+](=O)[O-])c1 (stereo not drawn)	139 to 141
O=C(Nc1ccc(-n2nc(C(F)(F)F)cc2C(F)(F)F)cc1)C1CC1	204 to 205
CCC(C)C(CN[C@@H](Cc1ccccc1)C(=O)OCc1ccccc1)NC(=O)OC(C)(C)C (stereo partly drawn)	53 to 55
COc1ccc(C2CSc3ccccc3N(CCO)C2=O)cc1 (stereo not drawn)	133
CCSc1cc(C)nc(SCC)c1NC(=O)CCCSc1nc2c(C)c(Cl)cc(C(C)C)c2o1	122 to 123
N#CCn1nnc2cc3c(cc2c1=O)OC1CCCN1C3=O (stereo not drawn)	210 to 212
COc1ccccc1C(C)(O)c1ccccc1OC	122 to 123
O=c1occ(CSc2ccc(F)cc2)o1	57 to 59
CCCC1Cc2c3c(c(C)c(C)c2C1O)OC(C(=O)O)C3 (stereo not drawn)	161
Cc1cc(COc2ccc(C(=O)NC[C@](O)(C(N)=O)N3CCN(Cc4ccccc4)CC3)cc2)c2ccccc2n1	169
O=c1oc(-c2ccc(-n3ccnc3)c(C(F)(F)F)c2)nn1Cc1cc(Cl)ccc1O	178 to 180
N#Cc1cccc(N2C(=O)CC(=O)Nc3c2ccc2c3CCC2)c1	250 to 251
OCc1cnoc1-c1ccc(Cl)c(F)c1	87 to 88
CCSc1cc(O)c(C#N)s1	105
Cc1cn2ccccc2c1S(=O)(=O)c1ccc(O)cc1	177
O=C(O)C1CCc2c(c3ccccc3n2C(=O)c2ccc3c(c2)OCO3)C1 (stereo not drawn)	198 to 200
CCCCCC1=NN(C(=O)NC2C3CC4CC(C3)CC2C4)CC1c1ccccc1 (stereo not drawn)	71
FC(F)(F)c1ccc(-c2nc(Oc3csc(C(F)(F)F)c3)cc(Oc3csc(C(F)(F)F)c3)n2)cc1	93 to 95
CCCc1cc2c(cc1C(=O)c1ccc(C(O)=NO)cc1)C(C)(C)CCC2(C)C	255 to 257
CC(C)(C)c1cc(C(=O)Nc2ccccc2NC(=O)NCC(c2ccccc2)c2ccccc2)cc(C(C)(C)C)c1O	198 to 200
COc1cc(N)c(Cl)cc1C(=O)N[C@H]1CCN(CCNC(=O)N(C)C)C[C@H]1OC (relative stereo)	206
N#Cc1ccc(N2C(=O)N(CCCCO)C3(CCCCC3)C2=O)cc1C(F)(F)F	145
Cc1sc2c(Br)c3ccccc3c(-c3cc(Br)c(O)c(C4CCCC4)c3)c2c1C	190 to 191

Compound	melting point [°C]
COc1ccc(S(=O)(=O)n2c(Cl)nc3c2c(=O)n(CC2CC2)c(=O)n3CC2CC2)cc1	118
Cc1c2n3ccc4c3c(c3cnccn3c-2cc(=O)c1=O)CCC4	> 80
O=C(NOCCO)c1ccc(F)cc1Nc1ccc(I)cc1F	117 to 119
N#CCN1C(=O)C2(COc3cc4c(cc32)OCO4)c2ccccc21 (stereo not drawn)	170 to 172
COc1cccc(-n2c(-c3cc(-c4ccc(S(C)(=O)=O)cc4)c(N4CCOCC4)s3)nc3ccccc3c2=O)c1	203 to 205
COc1ccc2c(c1)Cc1c(-c3cccs3)n[nH]c1-2	212 to 214
CC1(CNC(=O)OCc2ccccc2)Cn2cc([N+](=O)[O-])nc2O1 (stereo not drawn)	171 to 172
CCOC(=O)c1c(S(=O)Cc2nccn2C)nc2cc(OC)c(OC)cc2c1-c1ccc(OC)c(OC)c1 (stereo not drawn)	151 to 152
CCOCn1c(-c2ccc(Cl)cc2)c(C#N)c(Cl)c1C(F)(F)F	104
Cc1sc(-c2ccccc2)nc1COc1ccc(CCC[C@@H](O)C(=O)O)cc1	117 to 118
CC12CCC3c4ccc(O)c([N+](=O)[O-])c4CCC3C1CCC2=O (stereo not drawn)	> 250
CCCc1nc2c(N)nc(C)c(C)c2n1CCCC(=O)N1CCOCC1	164 to 165
CCCC[C@H](NC(=O)[C@H](CC(C)C)NC(=O)c1cc(F)cc(F)c1)C(=O)CSCc1ccco1	125 to 126
CCOC(=O)NC1(c2ccc(C(C)C)cc2OC)C(=O)c2ccccc2C1=O	149 to 150
CNC(=S)NS(=O)(=O)c1cc(CCNC(=O)c2cc(Cl)ccc2OC)ccc1-c1ccccn1	85 to 86
COC(=O)c1ccc(I)cc1Nc1ccccc1C(=O)O	206 to 208
Fc1cccc(SCc2nnc(-c3ccc4c(c3)CCO4)o2)c1	55 to 56
CC(=O)N1CCN(c2c(F)cc3c(=O)c(C(=O)O)cn(C4CC4)c3c2C)CC1C (stereo not drawn)	219 to 221
Nc1ccc(C(=O)N2Cc3cccn3-c3ccccc32)cc1	225 to 228
COC(=O)c1ccc(C#CC(=O)c2ccc3c(c2)CCCC3(C)C)cc1O	89 to 90
CS(=O)(=O)c1ccc(N2C=CC(N3CCCC3)C(=O)N2c2ccc(F)cc2)cc1 (stereo not drawn)	192 to 195
Cc1nc(NC(=O)NC(=O)c2c(F)cccc2F)ccc1-c1ccccc1	206 to 208
O=C(O)COc1cc2c(c(Cl)c1Cl)C(=O)C(C1CCCC1)C2 (stereo not drawn)	184 to 186
CC(C#N)c1cccc(C(=O)c2cc3sccc3s2)c1 (stereo not drawn)	75
NS(=O)(=O)c1cc2cc(OCC(=O)O)ccc2s1	200 to 203

Compound	melting point [°C]
COc1cc(CCN(C)Cc2ccc(OC)c(OC)c2)ccc1NC(=O)c1cccc2c(=O)c3cccc(F)c3[nH]c12	161 to 162
CCOC(=O)c1nc2ccc(Cl)cc2c(=O)[nH]1	249 to 251
C#CCCCCCCOC(=O)COc1ccc(F)c(C(N)=O)c1F	130 to 132
COCc1c(C(=O)c2ccccc2)ncc2[nH]c3cccc(Cc4ccccc4Cl)c3c12	147 to 148
CC(C)N1CCN(c2ccc([N+](=O)[O-])cc2)C(=O)C1	87 to 90
O=C(CCc1ccc(F)cc1)Cn1ccnc1	69 to 70
CCOC(=O)C(Cc1ccc(OC)cc1)c1cc2cc(C#N)ccc2s1 (stereo not drawn)	93 to 96
CC(=O)NCc1cc2n(n1)-c1ccc([N+](=O)[O-])cc1C(c1ccccc1)=NC2	208 to 211
Cc1ccc(S(=O)(=O)N(C)c2ccc(Cl)cc2C(N)=S)cc1	180 to 182
CC(C)(C)OC(=O)N1CCN(c2cccc3c2cnn3S(=O)(=O)c2ccccc2)CC1	130
O=C(O)CCc1cccc(C(O)(C(F)(F)F)C(F)(F)F)c1	112 to 113
CC(C)(C)OC(=O)NC1CC1F (stereo not drawn)	58 to 60
Fc1ccc([C@H]2CC[C@H](NCc3ccn4c(CC5CC5)nnc4c3C(F)(F)F)CC2)c(F)c1	110
N#CC(C#N)CC(=O)c1ccc(Cl)c(Cl)c1	142 to 145
CSc1nc2cc(Cl)c(Cl)cc2n1C	110
CC(=O)SC(CC(=O)c1ccc(Cl)cc1Cl)C(=O)O (stereo not drawn)	73 to 74.5
Cn1c(=O)c(-c2ccc(Cl)cc2Cl)cc2c3cc(I)ccc3n(C)c21	223 to 225
Cc1c[nH]c(=O)nc1OCc1ccccc1	181 to 182
COc1ccc(N2CCN(C[C@H]3COc4ccc5nc(C)ccc5c4O3)CC2)cc1	164 to 165
CCOC(=O)C(=O)Nc1ccc(NC(=O)C(=O)OCC)c(C#N)c1	140 to 141
S=C(NCCN(Cc1ccc(Cl)c(Cl)c1)c1ccc(Br)cn1)Nc1ccc2nn[nH]c2c1	190 to 192
CN(C)OCc1nnc2n1-c1ccc(Cl)cc1C(c1ccccc1)=NC2	174
COC(=O)C(=O)c1ccc(OCCCCOc2ccccc2)cc1	57 to 59
